Here are results for 19 compounds from patent US11351173B2, “Substituted pyrrolo[1,2-a]pyrimidines and their use in the treatment of medical disorders” (Bial—R&D Investments, S.A., priority 2014, dated 2022).

In series [1] the target is T1, glucocerebrosidase (Gcase) (Homo sapiens, UniProt P04062).
T1 construct: micellar solution containing 10 nM GCase and 100 nM saposin C
T1 sequence (P04062 40-536): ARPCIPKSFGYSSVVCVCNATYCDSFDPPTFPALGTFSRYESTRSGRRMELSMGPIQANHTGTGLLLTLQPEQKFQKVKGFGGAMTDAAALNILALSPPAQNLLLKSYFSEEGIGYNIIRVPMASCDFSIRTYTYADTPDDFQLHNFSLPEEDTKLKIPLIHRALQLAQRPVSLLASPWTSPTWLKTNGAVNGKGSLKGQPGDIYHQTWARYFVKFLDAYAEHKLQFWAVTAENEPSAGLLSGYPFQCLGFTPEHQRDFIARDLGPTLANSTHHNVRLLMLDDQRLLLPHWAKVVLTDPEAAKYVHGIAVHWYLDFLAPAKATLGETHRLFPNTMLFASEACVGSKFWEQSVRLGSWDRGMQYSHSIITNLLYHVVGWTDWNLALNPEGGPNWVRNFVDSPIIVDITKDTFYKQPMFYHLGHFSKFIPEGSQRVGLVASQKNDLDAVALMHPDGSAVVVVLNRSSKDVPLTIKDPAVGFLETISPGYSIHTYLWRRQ
Briefly: Glucocerebrosidase (Gcase) activation assay, 4-methylumbelliferyl-beta-D-glucopyranoside substrate, fluorescence readout. It is filed as biochemical. The conditions noted are these: for activation at 0.1 µM: read-out: Percent Gcase Activation, 0.1 μM Test Compound; for activation at 1 µM: read-out: Percent Gcase Activation, 1 μM Test Compound. On the procedure: The ability of exemplary compounds to activate glucocerebrosidase (Gcase) was measured.
A 484 μL aliquot of a 1.0 mg/mL solution of phosphatidylserine (PS) (Sigma P7769) in chloroform was evaporated under a stream of nitrogen for 1 hour. The lipid film was dissolved over 4 minutes of vigorous vortexing in 40 mL of 176 mM K2HPO4/50 mM citric acid (pH 4.7) containing 7.5 μL of triton X-100, resulting in a mixed micellar preparation with a composition of 0.32 mM triton and 0.37 mol % PS. 4-Methylumbelliferyl-beta-D-glucopyranoside (ACROS-337025000) was dissolved in the micellar solution to a final concentration of 2 mM for use as the reaction substrate.
Test compounds were diluted to the desired concentrations with dimethylsulfoxide (DMSO) from 10 mM stocks, and 0.41 μL of the DMSO compound mixture was added to 100 μL of micellar solution containing 10 nM GCase and 100 nM saposin C (Enzo ALX-201-262-C050). Pre-incubation was allowed to occur for 30 minutes at room temperature, after which the reaction was initiated by combining 25 μL of substrate solution with 25 μL of compound/GCase/saposin mixture. The reaction proceeded for 15 minutes at room temperature and was stopped by adding 150 μL of 1M glycine, pH 12.5. The endpoint of the reaction was monitored by measuring fluorescence intensity (excitation: 365 nm; emission: 440 nm) on a SpectraMax i3 instrument (Molecular Devices). Test compounds were screened at 1.0 and 0.1 μM final concentration, and subsequent 8-point dose response curves were obtained using 3-fold dilutions from a maximum final concentration of 5 μM.

A short description of series [2]: Compound solubility in water. The conditions noted are these: water; for solubility: Compound Solubility in Water.

Each structure is given as a SMILES string. In brackets after ≈: the same amount, converted by molar mass.

What is called solubility is the dissolved amount per volume that the medium holds. Higher therefore signals a readily soluble substance. `Cc1ccnc2c(C(=O)N[C@H]3CCCc4ccccc43)ccn12` [III-255]: the activation at 0.1 µM in series [1] (test compound at 0.1 μM) was more than 20%. The activation at 1 µM in series [1] (test compound at 1.0 μM) is more than 60%. In series [2] (in water), the concentration in solution (solubility) came to 3.5 µg/mL (≈ 11.5 µM).
With `Cc1cc(C)n2ccc(C(=O)Nc3ccc(-c4cocn4)nc3)c2n1` [III-3], the activation at 0.1 µM in series [1] (test compound at 0.1 μM) was less than 10%. The activation at 1 µM in series [1] (test compound at 1.0 μM) was 30 to 60%. This compound also returned a solubility in series [2] of less than 1.5 µg/mL.
Taken in the same sequence, the figures for `[2H]c1c(C([2H])([2H])[2H])nc2c(C(=O)NC(C)(C)c3ccc(F)cc3)cc([2H])n2c1C([2H])([2H])[2H]` [III-160] were more than 20%, more than 60% and 1.6 µg/mL (≈ 4.8 µM).
On to `C#Cc1ccc(NC(=O)c2ccn3c(C)cc(C)nc23)c(OCCOC)c1` [III-183], for which the activation at 0.1 µM in series [1] (test compound at 0.1 μM) was more than 20%. In addition, the activation at 1 µM in series [1] (test compound at 1.0 μM) is more than 60%. In series [2], this compound showed a solubility of 0.04 µg/mL (≈ 0.11 µM).
Taken in the same sequence, the figures for `Cc1cc(Cl)n2ccc(C(=O)Nc3ccc(-c4cocn4)cc3)c2n1` [III-39] were 10 to 20%, 30 to 60% and 0.7 µg/mL (≈ 1.98 µM).
On to `Cc1cc(C)n2ccc(C(=O)NC3CCC(c4ncco4)CC3)c2n1` (stereo not drawn) [III-245], for which the activation at 0.1 µM in series [1] (test compound at 0.1 μM) was less than 10%. Also, the activation at 1 µM in series [1] (test compound at 1.0 μM) was less than 30%. The compound also came in with a solubility in series [2] (in water) of 27.7 µg/mL (≈ 81.9 µM).
For `Cc1ccnc2c(C(=O)NC3(C)CCOc4c(F)cccc43)ccn12` (stereo not drawn) [III-258], the activation at 0.1 µM in series [1] (test compound at 0.1 μM) is less than 10%. Also, in series [1] (test compound at 1.0 μM), the activation at 1 µM is more than 60%. Besides, the concentration in solution in series [2] (in water) (solubility) came to 7.6 µg/mL (≈ 22.4 µM).
Taken in the same sequence, the figures for `CCCCCOC1CCCC(NC(=O)c2ccn3c(C)cc(C)nc23)C1` (stereo not drawn) [III-234] were more than 20%, more than 60% and 1.5 µg/mL (≈ 4.2 µM).
Turning to `Cc1cc(C)n2ccc(C(=O)NC3CCC4(CCCO4)CC3)c2n1` (stereo not drawn) [III-141], in series [1] (test compound at 0.1 μM), the activation at 0.1 µM was less than 10%. Besides, the activation at 1 µM in series [1] (test compound at 1.0 μM) was less than 30%. The same compound returned a solubility in series [2] of 17 µg/mL (≈ 51.9 µM).
As to `Cc1ccnc2c(C(=O)N[C@H](C)c3ccc(F)cc3)ccn12` [III-261], in series [1] (test compound at 0.1 μM), the activation at 0.1 µM was in the range of 10 to 20%. Besides, in series [1] (test compound at 1.0 μM), the activation at 1 µM lay within 30 to 60%. Besides, the concentration in solution in series [2] (in water) (solubility) came to 12.7 µg/mL (≈ 42.7 µM).
On to `C#Cc1cccc(C(C)(C)NC(=O)c2ccn3c(COC)cc(C)nc23)c1` [III-63], for which, in series [1] (test compound at 0.1 μM), the activation at 0.1 µM lay within 10 to 20%. In addition, the activation at 1 µM in series [1] (test compound at 1.0 μM) was more than 60%. The solubility in series [2] came out at 0.8 µg/mL (≈ 2.21 µM).
For `Cc1cc(C)n2ccc(C(=O)NC3CCC(C4CCCO4)CC3)c2n1` (stereo not drawn) [III-199], the activation at 0.1 µM in series [1] (test compound at 0.1 μM) was less than 10%. Further, in series [1] (test compound at 1.0 μM), the activation at 1 µM is 30 to 60%. Further, the solubility in series [2] came to 12.3 µg/mL (≈ 36 µM).
On to `Cc1cc(C)n2ccc(C(=O)NC3Cc4ccccc4C3)c2n1` [III-215], for which the activation at 0.1 µM in series [1] (test compound at 0.1 μM) lay within 10 to 20%. Also, the activation at 1 µM in series [1] (test compound at 1.0 μM) is more than 60%. Besides, in series [2] (in water), the solubility was 0.3 µg/mL (≈ 0.982 µM).
`Cc1cc(C)n2ccc(C(=O)N[C@H](C)c3ccccc3)c2n1` [III-165]: in series [1] (test compound at 0.1 μM), the activation at 0.1 µM was more than 20%. Besides, the activation at 1 µM in series [1] (test compound at 1.0 μM) is more than 60%. In series [2], this compound yielded a solubility of 1.1 µg/mL (≈ 3.75 µM).
Taken in the same sequence, the figures for `Cc1cc(C)n2ccc(C(=O)NCC3CCC(F)(F)CC3)c2n1` [III-153] were 10 to 20%, 30 to 60% and 15.3 µg/mL (≈ 47.6 µM).
In the case of `Cc1cc(C)n2ccc(C(=O)Nc3ccc(-c4ccco4)cc3)c2n1` [III-9], the “Percent Gcase Activation, 0.1 μM Test Compound” value in series [1] (test compound at 0.1 μM) is “*** (greater than 20% Gcase activation)”. Further, the “Percent Gcase Activation, 1 μM Test Compound” value in series [1] (test compound at 1.0 μM) was “+++ (Gcase activation greater than 60%)”. In addition, the “Compound Solubility in Water” value in series [2] is less than 0.1 µg/mL.
As for `CCCCO[C@H]1CC2CCC(C1)[C@H]2NC(=O)c1ccn2c(C)cc(C)nc12` [III-182], the activation at 0.1 µM in series [1] (test compound at 0.1 μM) was more than 20%. Further, the activation at 1 µM in series [1] (test compound at 1.0 μM) is more than 60%. Besides, the concentration in solution in series [2] (solubility) was 0.6 µg/mL (≈ 1.62 µM).
Taken in the same sequence, the figures for `Cc1cc(C)n2ccc(C(=O)Nc3ccc(C)c(-c4ncco4)c3)c2n1` [III-149] were more than 20%, more than 60% and less than 1.5 µg/mL.
Taken in the same sequence, the figures for `C#Cc1cccc(C(C)(C)NC(=O)c2ccn3c(COC)cc(COC)nc23)c1` [III-157] were more than 20%, more than 60% and 2.6 µg/mL (≈ 6.64 µM).
